Measurements reported in patent US20250188078A1, “SMALL MOLECULE INHIBITORS OF THE CRL4 UBIQUITIN LIGASE” (Cornell University, priority 2022, published 2025).

Key:
[1] = test system: CUL4A^high MDA-MB-468 breast cancer cells; test: Cell killing in CUL4-high MDA-MB-468 cells (CellTiter Glo); format: cell-based; settings: Homo sapiens, 192 h; MDA-MB-468 cells, 8 days treatment; read-out: EC50 CUL4-High Cells (cell killing)
Experimental: EC50 refers to concentration of compound that induces 50% killing of CUL4A^high MDA-MB-468 cells (see Table 1, column 6). CUL4A^high MDA-MB-468 breast cancer cells were seeded in 96 well plates. After 24 hours, cells were treated with DMSO or compounds. Change fresh medium and compounds. After 8 days treatment, cell viability was examined by using CellTiter Glo kit (Promega #7570) following the manufacturer's guidelines (https://www.promega.com/-/media/files/resources/protocols/technicalbulletins/0/celltiter-glo-luminescent-cell-viability-assay protocol.pdf?rev=0d95c232094b41daa06d0c110d1d916f&sc_lang=en, hereby incorporated by reference in its entirety for all purposes). EC50 concentration was calculated by Prism 8 XY analysis nonlinear regression (curve fit-Log(inhibitor) vs response). Lower EC50 indicates high cell killing potential in CUL4^high MDA-MB-468 cells.
CUL4A^high MDA-MB-468, CUL4^low (T47D), and MCF7 breast cancer cells were seeded in 96 well plates separately. Cells were treated with DMSO, or from 0 to 20 μM compound respectively. Replace with fresh medium and compounds every 48 hours. After 8 days treatment, cell viability was examined by CellTiter Glo kit (Promega #7570). First, transfer the appropriate volume (10 ml for Cat. #G7570) of CellTiter-Glo® Buffer into the amber bottle containing CellTiter-Glo® Substrate to reconstitute the lyophilized enzyme/substrate mixture. This forms the CellTiter-Glo® Reagent. Second, add CellTiter-Glo® Reagent in an equal volume (100 μl per well for 96-well plates) to all wells. Mix contents for 2 minutes on an orbital shaker to induce cell lysis. Incubate at room temperature for 15 minutes to stabilize luminescent signal. Then record luminescence. EC50 concentration was calculated by Prism 8 XY analysis nonlinear regression (curve fit-Log(inhibitor) vs response).

[2] = molecular target: CUL4A-DDB1-BPB interaction (Homo sapiens (Human), UniProt Q16531); test: AlphaLISA in vitro binding assay, CUL4A and DDB1-BPB binding; settings: inhibition of CUL4A and DDB1-BPB binding
CUL4A-DDB1-BPB interaction, sequence (Q16531 403-706): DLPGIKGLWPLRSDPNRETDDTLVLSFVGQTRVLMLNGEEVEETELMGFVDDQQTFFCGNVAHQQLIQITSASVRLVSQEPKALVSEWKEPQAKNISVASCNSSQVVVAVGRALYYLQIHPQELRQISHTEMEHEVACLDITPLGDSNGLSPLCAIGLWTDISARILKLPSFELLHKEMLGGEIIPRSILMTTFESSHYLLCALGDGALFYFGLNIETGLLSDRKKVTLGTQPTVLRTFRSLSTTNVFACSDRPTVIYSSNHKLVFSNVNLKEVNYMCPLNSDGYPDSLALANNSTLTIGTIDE
From the text: AlphaLISA IC50 (see Table 1, column 4) means the half maximal inhibitory concentration of compound that inhibits CUL4A and DDB1-BPB binding. Our lab established and optimized 384 well-based AlphaLISA in vitro binding assay for testing small molecule inhibitory activity. Small molecule libraries were screened for compounds that disrupt CUL4A-DDB1-BPB interaction using AlphaScreen detection beads (PerkinElmer, #AL112C and #6765300) following the manufacturer's protocol (https://www.perkinelmer.com/PDFs/downloads/GDE-Alphatech.pdf, hereby incorporated by reference in its entirety for all purposes). The 384-well assay plates (Greiner Bio-one, #781075) were read in Synergy Neo2 Hybrid Multi-Mode Reader (BioTek). The IC50 was calculated by Prism 8 XY analysis nonlinear regression (curve fit-Log(inhibitor) vs response).

[3] = test system: UV-induced CUL4-dependent DDB2 degradation in MEF-F-DDB2 cells; test: Cell-based assay for inhibition of UV-induced CUL4-dependent DDB2 degradation; parameters: key: (+) means that the normalized DDB2/α-tubulin ratio is higher in the compound treated sample than DMSO treated sample; (−) means that no change happens between compound treated sample with control sample; settings: DDB2/α-tubulin by Western blot
Experimental: Cell-based assay for inhibition of UV-induced CUL4-dependent DDB2 degradation by small molecule CUL4 inhibitors (see Table 1, column 5). Briefly, MEF-F-DDB2 cells were seeded in 6-well plates. DMSO or indicated concentrations of compounds were added to MEF-F-DDB2 cells growing in serum-free medium. MEF-F-DDB2 cells were washed once with PBS and subsequently irradiated with a Philips TUV lamp (predominantly 254 nm) at a dose rate of 0.2 W/m^2. DMSO or compounds were added to MEF-F-DDB2 cells, and then cells were harvested. The cells were lysed, and equal amounts of proteins were resolved on SDS-PAGE gel and Flag-DDB2 levels were detected using anti-DDB2 (D4C4) rabbit antibody (Cell signaling, #5416S). α-tubulin (Proteintech, #66031-1-Ig) was used as an internal loading control. (+) means that the normalized DDB2/α-tubulin ratio is higher in the compound treated sample than DMSO treated sample. (−) means that no change happens between compound treated sample with control sample.

CN(c1ccc(-c2nc(C(=O)O)cc3c2[nH]c2cc(F)cc(F)c23)cc1)S(=O)(=O)c1ccccc1 [PA1-5, 5,7-difluoro-1-(4-(N-methylphenylsulfonamido)phenyl)-9H-pyrido[3,4-b]indole-3-carboxylic acid]
EC50 [1]: 10.7 µM | IC50 [2]: 0.22 µM

CN(c1ccc(-c2nc(C(=O)O)cc3c2[nH]c2cc(Cl)ccc23)cc1)S(=O)(=O)c1ccccc1 [PA1-6, 1-[4-[benzenesulfonyl(methyl)amino]phenyl]-7-chloro-9H-pyrido[3,4-b]indole-3-carboxylic acid]
EC50 [1]: 7.89 µM | IC50 [2]: 1.13 µM

O=C(O)c1cc2c([nH]c3cc(F)ccc32)c(-c2ccc(Oc3ccccc3)cc2)n1 [PA1-11A, 7-fluoro-1-(4-phenoxyphenyl)-9H-pyrido[3,4-b]indole-3-carboxylic acid]
Degradation Inhibition (inhibition of UV-induced DDB2 degradation) [3]: − | EC50 [1]: 15.7 µM

O=C(O)c1cc2c([nH]c3cc(F)ccc32)c(-c2ccc(OCCc3ccccc3)cc2)n1 [PA1-11B, 7-fluoro-1-(4-phenethoxyphenyl)-9H-pyrido[3,4-b]indole-3-carboxylic acid]
Degradation Inhibition (inhibition of UV-induced DDB2 degradation) [3]: − | EC50 [1]: 15.2 µM

O=C(O)c1cc2c([nH]c3cc(F)ccc32)c(-c2ccc(OCCCc3ccccc3)cc2)n1 [PA1-11C, 7-fluoro-1-(4-(3-phenylpropoxy)phenyl)-9H-pyrido[3,4-b]indole-3-carboxylic acid]
Degradation Inhibition (inhibition of UV-induced DDB2 degradation) [3]: − | EC50 [1]: 7.31 µM

O=C(O)c1cc2c([nH]c3cc(F)ccc32)c(-c2ccc(OCC3CCCCC3)cc2)n1 [PA1-11D, 1-(4-(cyclohexylmethoxy)phenyl)-7-fluoro-9H-pyrido[3,4-b]indole-3-carboxylic acid]
Degradation Inhibition (inhibition of UV-induced DDB2 degradation) [3]: − | EC50 [1]: 9.51 µM

O=C(O)c1cc2c([nH]c3cc(F)ccc32)c(-c2ccc(OCc3ccoc3)cc2)n1 [PA1-11J, 7-fluoro-1-(4-(furan-3-ylmethoxy)phenyl)-9H-pyrido[3,4-b]indole-3-carboxylic acid]
Degradation Inhibition (inhibition of UV-induced DDB2 degradation) [3]: −

O=C(O)c1cc2c([nH]c3cc(F)ccc32)c(-c2ccc(OCc3ccncn3)cc2)n1 [PA1-11L, 7-fluoro-1-(4-(pyrimidin-4-ylmethoxy)phenyl)-9H-pyrido[3,4-b]indole-3-carboxylic acid]
Degradation Inhibition (inhibition of UV-induced DDB2 degradation) [3]: −

O=C(O)c1cc2c([nH]c3cc(F)ccc32)c(-c2ccc(OCn3cncn3)cc2)n1 [PA1-11M, 1-(4-((1H-1,2,4-triazol-1-yl)methoxy)phenyl)-7-fluoro-9H-pyrido[3,4-b]indole-3-carboxylic acid]
Degradation Inhibition (inhibition of UV-induced DDB2 degradation) [3]: −

Cc1cc(F)cc2[nH]c3c(-c4ccc(N(C)S(=O)(=O)c5ccccc5)cc4)nc(C(=O)O)cc3c12 [PA1-14, 7-fluoro-5-methyl-1-(4-(N-methylphenylsulfonamido)phenyl)-9H-pyrido[3,4-b]indole-3-carboxylic acid]
EC50 [1]: 7.36 µM | IC50 [2]: 0.139 µM

O=C(O)c1cc2c([nH]c3ccccc32)c(-c2cccc(Cl)c2)n1 [PA6]
IC50 [2]: 3.97 ± 0.79 µM

Cn1c2ccccc2c2cc(C(=O)O)nc(-c3ccc([N+](=O)[O-])cc3)c21 [PA14, 9-methyl-1-(4-nitrophenyl)pyrido[3,4-b]indole-3-carboxylic acid]
IC50 [2]: 32.2 ± 7.89 µM

O=C(O)c1cc2c([nH]c3ccccc32)c(-c2ccc(CO)cc2)n1 [PA21]
IC50 [2]: 3.4 ± 0.88 µM

O=C(O)c1cc2c([nH]c3ccccc32)c(-c2cccc(O)c2)n1 [PA22]
IC50 [2]: 14.7 ± 3.25 µM

N#Cc1cccc(-c2nc(C(=O)O)cc3c2[nH]c2ccccc23)c1 [PA23]
IC50 [2]: 2.38 ± 0.9 µM

COC(=O)c1cccc(-c2nc(C(=O)O)cc3c2[nH]c2ccccc23)c1 [PA24, 1-(3-methoxycarbonylphenyl)-9HPage pyrido[3,4-b]indole-3-carboxylic acid]
Degradation Inhibition (inhibition of UV-induced DDB2 degradation) [3]: + | IC50 [2]: 12 µM

O=C(O)c1cc2c([nH]c3ccccc32)c(-c2cccnc2)n1 [PA25]
Degradation Inhibition (inhibition of UV-induced DDB2 degradation) [3]: + | IC50 [2]: 2.52 ± 0.54 µM

CN1C=C(c2nc(C(=O)O)cc3c2[nH]c2ccccc23)C=NC1 [PA26]
IC50 [2]: 4.81 ± 0.96 µM

O=C(O)c1cc2c([nH]c3ccccc32)c(-c2ncc[nH]2)n1 [PA27]
IC50 [2]: 23.1 ± 4.02 µM

O=C(O)c1cc2c([nH]c3ccccc32)c(-c2ccc3[nH]ccc3c2)n1 [PA28, 1-(1H-indol-5-yl)-9H-pyrido[3,4-b]indole-3-carboxylic acid]
IC50 [2]: 34.8 ± 8.75 µM

Cc1c(/C(=N\CC(=O)O)c2ccc3[nH]ncc3c2)[nH]c2ccccc12 [PA29]
IC50 [2]: 3.79 ± 1.02 µM

O=[N+]([O-])c1ccc(-c2nc(Br)cc3c2[nH]c2ccc(Br)cc23)cc1 [PA30, 3,6-dibromo-1-(4-nitrophenyl)-9H-pyrido[3,4-b]indole]
AlphaLisa IC50 [2]: Neg

O=C(O)c1cc2c([nH]c3ccccc32)c(-c2ccc(F)c(F)c2)n1 [PA32]
IC50 [2]: 3.54 ± 0.68 µM

O=C(O)c1cc2c([nH]c3ccccc32)c(-c2cccc([N+](=O)[O-])c2)n1 [PA36]
IC50 [2]: 7.1 ± 0.61 µM

CS(=O)(=O)Nc1cc2c([nH]c3ccccc32)c(-c2ccc([N+](=O)[O-])cc2)n1 [PA38, N-[1-(4-nitrophenyl)-9H-pyrido[3,4-b]indol-3-yl]methanesulfonamide]
AlphaLisa IC50 [2]: Neg

NS(=O)(=O)c1cc2c([nH]c3ccc(Cl)cc32)c(-c2ccc([N+](=O)[O-])cc2)n1 [PA41, 6-chloro-1-(4-nitrophenyl)-9H-pyrido[3,4-b]indole-3-sulfonamide]
AlphaLisa IC50 [2]: Neg

CCS(=O)(=O)c1ccc(-c2nc(C(=O)O)cc3c2[nH]c2ccccc23)cc1 [PA45, 1-(4-ethylsulfonylphenyl)-9Hpyrido[3,4-b]indole-3-carboxylic acid]
IC50 [2]: 0.94 ± 0.24 µM

NS(=O)(=O)c1ccc(-c2nc(C(=O)O)cc3c2[nH]c2ccccc23)cc1 [PA49, 1-(4-sulfamoylphenyl)-9H-pyrido[3,4-b]indole-3-carboxylic acid]
IC50 [2]: 0.96 ± 0.096 µM

CN(C)S(=O)(=O)c1ccc(-c2nc(C(=O)O)cc3c2[nH]c2ccccc23)cc1 [PA50, 1-[4-(dimethylsulfamoyl)phenyl]-9H-pyrido[3,4-b]indole-3-carboxylic acid]
IC50 [2]: 0.81 ± 0.21 µM

O=C(O)c1cc2c([nH]c3ccccc32)c(-c2ccc(-c3ccc(F)cc3)cc2)n1 [PA58]
IC50 [2]: 5.5 ± 1.89 µM

Cc1ccc(-c2ccc(-c3nc(C(=O)O)cc4c3[nH]c3ccccc34)cc2)cc1 [PA59]
IC50 [2]: 25 ± 12.5 µM

COc1ccc(-c2ccc(-c3nc(C(=O)O)cc4c3[nH]c3ccccc34)cc2)cc1 [PA60]
Degradation Inhibition (inhibition of UV-induced DDB2 degradation) [3]: − | IC50 [2]: 17.5 ± 6.39 µM

CS(=O)(=O)c1ccc(-c2ccc(-c3nc(C(=O)O)cc4c3[nH]c3ccccc34)cc2)cc1 [PA61]
IC50 [2]: 3.86 ± 0.59 µM

O=C(O)c1cc2c([nH]c3ccccc32)c(-c2ccc(C#Cc3ccccc3)cc2)n1 [PA62]
IC50 [2]: 36.5 ± 9.9 µM

COCCOCC#Cc1ccc(-c2nc(C(=O)O)cc3c2[nH]c2ccccc23)cc1 [PA63]
IC50 [2]: 5.05 ± 0.2 µM

CS(=O)(=O)c1ccc(-c2nc(C(=O)O)nc3c2[nH]c2ccccc23)cc1 [PA70, 4-(4-methylsulfonylphenyl)-5H-pyrimido[5,4-b]indole-2-carboxylic acid]
IC50 [2]: 9.04 ± 0.89 µM

O=C(O)c1cc2c([nH]c3ccccc32)c(-c2ccc(NS(=O)(=O)c3ccccc3)cc2)n1 [PA77, 1-[4-(benzenesulfonamido)phenyl]-9H-pyrido[3,4-b]indole-3-carboxylic acid]
IC50 [2]: 1.52 ± 0.19 µM
